Assay: Stability assay: six month storage stability of polymorphic forms of fusidic acid (HPLC)
Format: physicochemical
Settings: for HPLC-assay (% of origin) / Impurities total (%): after 6 month storage at 40° C., solid crystal form

Row | HPLC-assay (% of origin) | Impurities total (%) | HPLC-assay (% of origin) (hemihydrate) | Impurities total (%) (hemihydrate) | Relative stability among known forms of fusidic acid (comparative six month standard stability study) | Structure (SMILES)
1 | 98.2 % of origin | 1.0 | – | – | – | CC(=O)O[C@H]1C[C@@]2(C)[C@@H](C[C@@H](O)[C@H]3[C@@]4(C)CC[C@@H](O)[C@@H](C)[C@@H]4CC[C@@]32C)/C1=C(\CCC=C(C)C)C(=O)O [Fusidic acid form I from ES 2208110, Fusidic acid]
2 | 88.2 % of origin | 5.2 | – | – | – | CC(=O)O[C@H]1C[C@@]2(C)[C@@H](C[C@@H](O)[C@H]3[C@@]4(C)CC[C@@H](O)[C@@H](C)[C@@H]4CC[C@@]32C)/C1=C(\CCC=C(C)C)C(=O)O [Fusidic acid form II from ES 2208110, Fusidic acid]
3 | – | – | 87.7 % of origin | 8.7 | – | CC(=O)O[C@H]1C[C@@]2(C)[C@@H](C[C@@H](O)[C@H]3[C@@]4(C)CC[C@@H](O)[C@@H](C)[C@@H]4CC[C@@]32C)/C1=C(\CCC=C(C)C)C(=O)O [Fusidic acid hemihydrate]
4 | 99.2 % of origin | 0.1 | – | – | most stable form | CC(=O)O[C@H]1C[C@@]2(C)[C@@H](C[C@@H](O)[C@H]3[C@@]4(C)CC[C@@H](O)[C@@H](C)[C@@H]4CC[C@@]32C)/C1=C(\CCC=C(C)C)C(=O)O [Fusidic acid of the present invention, Fusidic acid]

Reference: US8933063B2, “Preparation of a crystalline antibiotic substance” (Leo Pharma A/S, priority 2005, dated 2015)
